Measurements reported in paper PMC5556071, “ATR inhibition facilitates targeting of leukemia dependence on convergent nucleotide biosynthetic pathways” (Nature Communications, 2017).
“And” between values parts separate entries of the source, which are not always exact repeats. Equal entries are not always repeated.

Tested on: CEM cells
Assay: Non-targeted LC-MS metabolite profiling: percent [13C6]glucose labeling and relative metabolite levels
Type: cell-based, human
Details: CEM cells, 12 h following release from G1 arrest, replicates #1-#6
Text: To further investigate the functions of dCK and ATR at the G1/S transition in CEM cells, a non-targeted liquid chromatography mass spectrometry (LC-MS) assay was used to determine the utilization of labeled [^13C6]glucose and [^13C9,^15N3]deoxycytidine, the main substrates for de novo and salvage nucleotide biosynthesis, respectively. Of the 166 metabolites identified in CEM cells treated with VE-822 and/or dCKi, 105 metabolites found in all four treatment groups contained glucose-derived ^13C atoms. […] These metabolites included intermediates such as rUTP, rCTP and rCDP in the de novo dCTP biosynthesis (Fig. 1d). […] However, several deoxyribonucleotides, including dCTP, were below the limit of detection of the non-targeted LC-MS approach, raising the concern that the sensitivity of this assay is not sufficient to measure the contribution of the salvage pathway or the ratio of de novo and salvage biosynthesis to these pools. To address this problem, a newly developed targeted MS assay was developed (Fig. 1e and Supplementary Fig. 3). In this assay, samples containing either extracted dNTPs or hydrolyzed DNA from labeled cells are separated by LC for detection by a triple quadrupole mass spectrometer using multiple reaction monitoring (LC-MS/MS-MRM). The first (Q1) and third (Q3) quadrupoles function as mass filters, while the second (Q2) quadrupole serves as a collision chamber (Fig. 1e). For instance, to profile the biosynthetic composition of deoxycytidine (dC) derived from hydrolyzed DNA or dCTP, an intact, protonated dC ion is selected in Q1, followed by fragmentation of the glycosidic bond, which releases protonated cytosine in Q2, that is filtered in Q3 and detected to generate an ion chromatogram. The peak areas for the ion chromatograms of salvage [^13C9,^15N3]dC (red trace), de novo [^13C5]dC (black trace, from [^13C6]glucose) and unlabeled dC (gray trace) (Fig. 1e) are used to determine the relative contributions of the de novo and salvage routes both to dCTP pools and to DNA-incorporated dCTP.
Cells were transferred into RPMI-1640 without glucose and supplemented with 10% dialyzed FBS (Gibco) containing the following labeled substrates: precursors for de novo [U-^13C6]glucose (Sigma-Aldrich, 389374) at 11 mM; precursors for purine salvage [U-^13C10,^15N5]dA (Cambridge Isotopes, CIL 3896), [^15N5]dA (Cambridge Isotopes, NLM-3895) and [^15N5]dG (Cambridge Isotopes, NLM-3899) at 5 µM or as indicated; and precursors for pyrimidine salvage: [U-^13C9,^15N3]dC (Silantes, 124603602) and [U-^13C10,^15N2]dT (Cambridge Isotopes, CNLM-3902) at 5 µM and [^15N2]orotate (Cambridge Isotopes, NLM-1048) at indicated concentrations. The cells were incubated for 12 h or as indicated before sample collection and processing. […]
Non-targeted LC-MS metabolic assays. 1 x 10^6 cells were washed with ice-cold 150 mM ammonium acetate twice before adding 1 mL of ice-cold 80% methanol with 10 nM norvaline as an internal standard. After vigorous vortexing, samples were centrifuged at maximum speed, the aqueous layer was transferred to a glass vial and the metabolites were dried under vacuum. Metabolites were resuspended in 50 μL 70% acetonitrile (ACN) and 5 μL of this solution used for the mass spectrometer-based analysis. The analysis was performed on a Q Exactive (Thermo Scientific) in polarity-switching mode with positive voltage 4.0 kV and negative voltage 4.0 kV. The mass spectrometer was coupled to an UltiMate 3000RSLC (Thermo Scientific) UHPLC system. Mobile phase A was 5 mM ammonium acetate (NH4AcO), pH 9.9, B was acetonitrile and the separation achieved on a Luna […] NH2 100 A column (150 × 2.0 mm, Phenomenex). The flow was 200 μL/min, and the gradient ran from 15% A to 95% A in 18 min, followed by an isocratic step for 9 min and re-equilibration for 7 min. Metabolites were detected and quantified as area under the curve based on retention time and accurate mass (≤ 3 p.p.m.) using the TraceFinder 3.1 (Thermo Scientific). Relative amounts of […]

[1] = metabolite 2-HG (C02630), listed as V
[2] = metabolite 2-HIC (C03264), listed as V
[3] = metabolite 3PG (C00197), listed as V
[4] = metabolite 5-Oxoproline (C01879), listed as V
[5] = metabolite A (C00212), listed as V
[6] = metabolite ADP (C00008), listed as V
[7] = metabolite AMP (C00020), listed as V
[8] = metabolite ATP (C00002), listed as V
[9] = metabolite Ac-carnitine (C02571), listed as V
[10] = metabolite Ac-choline (C01996), listed as V
[11] = metabolite Aconitate (C00417), listed as V
[12] = metabolite Adenine (C00034), listed as V
[13] = metabolite Ala (C00041), listed as V
[14] = metabolite Allantoin (C02350), listed as V
[15] = metabolite Arg (C00062), listed as V
[16] = metabolite Arg-Succ (C03406), listed as V

## CNCc1ccc(-c2cc(-c3nc(-c4ccc(S(=O)(=O)C(C)C)cc4)cnc3N)on2)cc1 [VE-822]
Listed as V
  Relative level, Sarc (C00213): 1.3 (2×) and 1.2 and 0.569 and 0.751 and 0.6
  Relative level, Ser (C00065): 1.4 and 1.5 (2×) and 0.9 and 1.0 and 0.949
  Relative level, Shikimate (C00493): 1.3 and 1.2 and 1.5 and 1.1 and 0.8 (2×)
  Relative level, Succ (C00042): 1.6 (2×) and 1.3 and 1.1 and 0.5 (2×)
  Relative level, T (C00214): 1.1 (2×) and 1.3 (2×) and 1.2 and 1.4
  Relative level, Thr (C00188): 1.5 and 1.6 (2×) and 1.0 and 0.949 and 0.9
  Relative level, Thymine (C00178): 1.4 and 1.5 (2×) and 1.0 (2×) and 1.2
  Relative level, Trigonelline (C01004): 1.3 (3×) and 1.5 and 0.8 and 1.2
  Relative level, Trp (C00078): 1.4 and 1.5 (2×) and 0.9 (2×) and 1.0
  Relative level, Tyr (C00082): 1.4 and 1.6 (2×) and 0.9 (3×)
  Relative level, Tyramine (C00483): 1.0 and 1.1 and 1.7 and 0.8 (2×) and 0.7
  Relative level, UDP (C00015): 2.4 and 1.3 and 1.6 and 1.1 and 0.7 and 0.6
  Relative level, UDP-Glc (C00029): 2.4 and 2.0 and 2.8 and 1.5 and 1.4 and 1.7
  Relative level, UDP-GlcNAc (C00043): 1.2 and 1.1 and 1.4 and 0.747 and 0.8 and 0.9
  Relative level, UMP (C00105): 2.6 and 2.3 and 2.5 and 2.0 and 0.7 (2×)
  Relative level, UTP (C00075): 1.2 and 0.571 and 0.7 and 0.75 and 0.4 and 0.355
  Relative level, Uracil (C00106): 1.2 (2×) and 2.0 and 2.6 and 1.1 and 0.8
  Relative level, Uric Acid (C00366): 0.5 and 0.9 and 1.4 and 0.242 and 0.282 and 0.253
  Relative level, Urocanate (C00785): 0.542 and 1.3 and 1.4 and 0.452 and 0.8 and 0.7
  Relative level, Val (C00183): 1.1 and 1.3 (2×) and 1.5 and 0.9 (2×)
  Relative level, Vit-C (C00072): 5.1 and 1.4 (2×) and 2.3 and 0.5 and 0.2
  Relative level, Xanthine (C00385): 0.9 and 1.7 and 2.5 and 2.4 and 0.843 and 0.6
[1]
  Glucose labeling, 2-HG: 9.00% and 8.24% and 8.56% and 6.59% and 3.26% and 5.24%
  Relative level, 2-HG: 1.5 and 1.0 and 1.3 and 0.9 and 0.545 and 0.5
[2]
  Glucose labeling, 2-HIC: -2.22e-14% and 0.00% (5×)
  Relative level, 2-HIC: 1.2 (2×) and 1.5 (2×) and 0.8 and 0.9
Metabolite 2-KIC (C00233)
  Glucose labeling, 2-KIC: 0.00%
Metabolite 2-KIC (C00233), listed as V
  Relative level, 2-KIC: 1.1 and 1.2 and 1.3 and 0.9 (2×) and 0.8
Metabolite 2-Oxoadipate (C00322)
  Glucose labeling, 2-Oxoadipate: 0.00%
Metabolite 2-Oxoadipate (C00322), listed as V
  Relative level, 2-Oxoadipate: 1.3 and 1.0 (2×) and 1.4 and 1.1 and 0.759
Metabolite 2-Oxosuccinamate (C02362)
  Glucose labeling, 2-Oxosuccinamate: 0.0737%
Metabolite 2-Oxosuccinamate (C02362), listed as V
  Relative level, 2-Oxosuccinamate: 0.8 and 0.9 and 1.6 and 2.4 and 0.5 and 0.438
[3]
  Glucose labeling, 3PG: 98.64% and 92.25% and 93.08% and 80.82% and 100.00% (2×)
  Relative level, 3PG: 1.3 and 0.262 and 0.5 (2×) and 0.0899 and 0.0949
Metabolite 4-OH-PheLac (C03672)
  Glucose labeling, 4-OH-PheLac: 0.00%
Metabolite 4-OH-PheLac (C03672), listed as V
  Relative level, 4-OH-PheLac: 1.0 and 1.1 and 1.3 and 0.7 and 0.5 and 0.6
[4]
  Glucose labeling, 5-Oxoproline: 1.06% and 0.96% and 1.16% and 0.74% (2×) and 0.98%
  Relative level, 5-Oxoproline: 1.0 (2×) and 1.1 (2×) and 0.9 and 0.7
Metabolite 5M-adenosine (C00170)
  Glucose labeling, 5M-adenosine: 0.00%
Metabolite 5M-adenosine (C00170), listed as V
  Relative level, 5M-adenosine: 1.7 and 1.9 (2×) and 1.3 (2×) and 1.4
[5]
  Glucose labeling, A: 0.0217% and 0.39% and 0.36% and 0.0233% and 0.0286% and 0.01%
  Relative level, A: 1.7 and 1.1 and 1.2 and 4.1 and 1.0 and 1.8
[6]
  Glucose labeling, ADP: 63.63% and 60.29% and 63.02% and 59.23% and 57.33% and 59.16%
  Relative level, ADP: 2.2 and 1.0 and 1.4 and 1.2 and 0.6 (2×)
[7]
  Glucose labeling, AMP: 58.98% and 57.42% and 62.07% and 26.04% and 58.67% and 50.37%
  Relative level, AMP: 2.8 and 1.7 and 2.2 and 3.0 and 0.8 and 0.7
[8]
  Glucose labeling, ATP: 65.50% and 64.37% and 65.03% and 64.82% and 61.07% and 61.72%
  Relative level, ATP: 1.5 and 0.6 and 0.849 and 0.9 and 0.466 and 0.5
[9]
  Glucose labeling, Ac-carnitine: 29.64% and 30.01% and 28.25% and 21.49% and 24.07% and 21.63%
  Relative level, Ac-carnitine: 1.1 (2×) and 1.2 and 0.7 (2×) and 0.8
[10]
  Glucose labeling, Ac-choline: 0.00429% and 0.00459% and 0.00523% and 0.00396% and 0.00509% and 0.00552%
  Relative level, Ac-choline: 0.746 and 0.8 (3×) and 0.76 and 0.9
[11]
  Glucose labeling, Aconitate: 33.62% and 26.91% and 31.71% and 21.17% and 28.64% and 25.94%
  Relative level, Aconitate: 1.0 and 0.433 and 0.659 and 0.53 and 0.3 and 0.355
[12]
  Glucose labeling, Adenine: 1.88e-5% and 1.21e-5% and 0.00361% and 1.25e-5% and 1.11e-5% and 0.0013%
  Relative level, Adenine: 1.8 and 3.0 and 3.1 and 41.9 and 2.1 and 1.5
[13]
  Glucose labeling, Ala: 57.46% and 55.60% and 53.77% and 47.90% and 47.23% and 52.00%
  Relative level, Ala: 1.3 and 1.5 (2×) and 0.9 (2×) and 1.0
[14]
  Glucose labeling, Allantoin: 0.00% (5×) and -2.22e-14%
  Relative level, Allantoin: 1.3 (2×) and 1.7 and 1.1 and 0.7 and 1.0
[15]
  Glucose labeling, Arg: 0.00452% and 0.00428% and 0.00453% and 0.00405% and 0.00437% and 0.00476%
  Relative level, Arg: 1.5 and 1.7 and 1.6 and 0.9 (2×) and 1.1
[16]
  Glucose labeling, Arg-Succ: 10.44% and 8.30% and 5.56% and 3.28% and 1.95% and 6.31%
  Relative level, Arg-Succ: 1.4 and 1.3 and 1.5 and 0.9 and 0.6 and 0.5
Metabolite Asn (C00152), listed as V
  Glucose labeling, Asn: 5.14e-5% and 2.85e-6% and 2.32e-6% and 0.000702% and 2.84e-6% and 2.39e-6%
